Measured values reported in article PMC12184311 (2025).

What was measured:
[1] = system: 3WJ (DNA, junction) CGGAACGGCACTCG/CGAGTGCAGCGTGG/CCACGCTCGTTCCG; assay: PAGE; conditions: Na+ 50 mM (NaCl), 1X TB, 37 °C 1 h incubation
[2] = system: 4WJ-18 (DNA, junction) GCTAGCTGATACGCTACG/CGTAGCGTACGTTGGTGC/GCACCAACGCGTCACTCC/GGAGTGACGTCAGCTAGC; assay: PAGE; conditions: Na+ 50 mM (NaCl); 1X TB, 37 °C 1 h incubation; 0.25 to 5 equiv; compound induces junction assembly
[3] = system: 4WJ-22 (DNA, junction) GCCTAGCATGATACTGCTACCG/CGGTAGCAGTACCGTTGGTGGC/GCCACCAACGGCGTCAACTGCC/GGCAGTTGACGTCATGCTAGGC; assay: PAGE gel shift; conditions: Na+ 50 mM (NaCl); 1X TB
[4] = system: FAM-labelled 4WJ-18 (DNA, junction) GCTAGCTGATACGCTACG/CGTAGCGTACGTTGGTGC/GCACCAACGCGTCACTCC/GGAGTGACGTCAGCTAGC; assay: PAGE competition, FAM fluorescence; conditions: Na+ 50 mM (NaCl); 1X TB, 37 °C 1 h; 1 equivalent Pt-BIMA; competitor unlabelled 4WJ-18, Y fork, dsDNA, 3WJ

| Compound | binding ([1]; control lane) | binding ([1]; 0.25 to 5 equiv) | binding [2] | binding [3] | binding [4] |
| --- | --- | --- | --- | --- | --- |
| C(=Nc1ccc(Cc2ccc(N=Cc3ccccn3)cc2)cc1)c1ccccn1.C(=Nc1ccc(Cc2ccc(N=Cc3ccccn3)cc2)cc1)c1ccccn1.C(=Nc1ccc(Cc2ccc(N=Cc3ccccn3)cc2)cc1)c1ccccn1.[Ni+2].[Ni+2] | yes |  |  |  |  |
| [Pd+2].[Pd+2].c1ccc2c(c1)ncn2Cc1c2ccccc2c(Cn2cnc3ccccc32)c2ccccc12.c1ccc2c(c1)ncn2Cc1c2ccccc2c(Cn2cnc3ccccc32)c2ccccc12.c1ccc2c(c1)ncn2Cc1c2ccccc2c(Cn2cnc3ccccc32)c2ccccc12.c1ccc2c(c1)ncn2Cc1c2ccccc2c(Cn2cnc3ccccc32)c2ccccc12 |  | yes | yes |  |  |
| [Pt+2].[Pt+2].c1ccc2c(c1)ncn2Cc1c2ccccc2c(Cn2cnc3ccccc32)c2ccccc12.c1ccc2c(c1)ncn2Cc1c2ccccc2c(Cn2cnc3ccccc32)c2ccccc12.c1ccc2c(c1)ncn2Cc1c2ccccc2c(Cn2cnc3ccccc32)c2ccccc12.c1ccc2c(c1)ncn2Cc1c2ccccc2c(Cn2cnc3ccccc32)c2ccccc12 |  | yes | yes | yes | yes |
